Source: patent US10694743B2, “Agricultural compositions with reduced aquatic toxicity” (priority 2014, dated 2020)
“Also recorded” adds a separate entry of the source.

What was measured:
wild oat (AVEFA) = assay: Agricultural field test of glyphosate with adjuvant, visual weed control (second trial); type: in vivo, Avena fatua; details: glyphosate 480 g.a.e./ha; for AVEFA 9 DAT, %: 0-100, 9 DAT; for AVEFA 23 DAT, %: 0-100, 23 DAT
Experimental: (§1) Amine ethoxylates are evaluated as adjuvants for glyphosate formulations in agricultural field tests performed by an independent laboratory. The weed species included in the evaluation are common lambsquarters (CHEAL), barnyard grass (ECHCG), and wild oat (AVEFA).
(§2) Two field trials are conducted in the Netherlands during the summer. In the first trial, common lambsquarters (CHEAL, Chenopodium album), barnyard grass (ECHCG, Echinochloa crus-galls) and wild oat (AVEFA, Avena fatua) are sown in three distinct zones of the same size in a 4×2 m field plot. Other emerging weed species are removed by hand as needed. Five weeks after sowing, the plots are treated and weed control is visually assessed 8, 14, and 22 days after treatment (DAT). Visual assessment is used with a scale of 0=no effect to 100=complete kill. Growth reduction is included in this assessment. On the day of treatment, ECHCG has more than six leaves, and CHEAL has at least six unfolded leaves. A second test with AVEFA alone is conducted because the level of emergence was too low in the first test. (Results from the first AVEFA testing are not included.) AVEFA is at the 3-leaf stage on the day of treatment. The plots are visually evaluated 9 and 23 days after treatment.
(§3) A glyphosate potassium solution (540 g.a.e./L) without surfactants or other adjuvant chemicals is used to prepare solutions that contain the adjuvants listed in Table 2A. Roundup® Powermax® (540 g.a.e./L, product of Monsanto) is used as a control. The glyphosate solutions are diluted with deionized water such that application at a water volume of 80 L/ha results in a glyphosate application rate of 480 g.a.e./ha. Adjuvants are included in the diluted glyphosate solution at a ratio of 160 g adjuvant per 540 g.a.e. glyphosate. In this way, commercial glyphosate products containing glyphosate at 540 g.a.e./L and adjuvant at 160 g/L are simulated.
(§4) Glyphosate solutions are applied with a backpack sprayer having a TeeJet® TP8003E nozzle set to deliver 80 L/ha at 150 kPa. The application with the first trial started early in the morning in mid-summer. Conditions: sunny skies, relative humidity 80%, temperature 18° C., little or no wind, wet soil, damp foliage. Application of AVEFA trial starts in early autumn late in the afternoon. Conditions: partly cloudy, relative humidity 79%, temperature 15° C., little or no wind, wet soil, dry foliage.

[1] = test system: common lambsquarters (CHEAL), barnyard grass (ECHCG), and wild oat (AVEFA); assay: Agricultural field testing, overall performance over the weed species; type: in vivo; details: all weed species, glyphosate 480 g.a.e./ha
Experimental: as §1
as §2, with “after treatment. […]” for “after treatment.”

barnyard grass (ECHCG) = assay: Agricultural field test of glyphosate with adjuvant, visual weed control; type: in vivo, Echinochloa crus-galls; details: for ECHCG control relative to Roundup Powermax / ECHCG 22 DAT, %: 22 DAT; for ECHCG 8 DAT, % / ECHCG 14 DAT, % / ECHCG 22 DAT, %: visual weed control, 0-100, glyphosate 480 g.a.e./ha
Experimental: as §1, §2, §3, §4

[2] = test system: common lambsquarters (CHEAL); assay: as above; type: in vivo, Chenopodium album; details: for CHEAL control relative to the control: 8 and 14 DAT; for CHEAL control relative to Roundup Powermax / CHEAL 22 DAT, %: 22 DAT; for CHEAL 14 DAT, % / CHEAL 22 DAT, % / CHEAL 8 DAT, %: visual weed control, glyphosate 480 g.a.e./ha; for CHEAL 14 DAT, % / CHEAL 22 DAT, %: 0-100; for CHEAL 8 DAT, %: 0=no effect to 100=complete kill, 160 g adjuvant per 540 g.a.e.
Experimental: as §1, §2, §3, §4

Daphnia magna = assay: Aquatic toxicity screen, Daphnia sp. Acute Immobilization Test (OECD 202 / OPPTS 850.1010); details: for 48-Hour EC50: 48-hour exposure, static test conditions
Experimental: The study is performed based on procedures in the OECD Guidelines for Testing of Chemicals, Guideline 202: Daphnia sp., Acute Immobilization Test, and U.S. EPA Guidelines, OPPTS Number 850.1010: Aquatic Invertebrate Acute Toxicity Test. The half maximal effective concentration (EC50) after 48 hours is reported below.

Substance	AVEFA 9 DAT, % (wild oat (AVEFA))	AVEFA 23 DAT, % (wild oat (AVEFA))	overall field performance as glyphosate adjuvant [1]	overall field performance as glyphosate adjuvant ([1]; listed as C11 unsaturated 2EO ethoxylate)	ECHCG control relative to Roundup Powermax (barnyard grass (ECHCG))	ECHCG 8 DAT, % (barnyard grass (ECHCG))	ECHCG 14 DAT, % (barnyard grass (ECHCG))	ECHCG 22 DAT, % (barnyard grass (ECHCG))	CHEAL control relative to the control [2]	CHEAL control relative to Roundup Powermax [2]	CHEAL 14 DAT, % [2]	CHEAL 22 DAT, % [2]	CHEAL 8 DAT, % [2]	48-Hour EC50 (Daphnia magna)	aquatic toxicity rating (Daphnia magna; in vivo)
C11 unsaturated fatty amine 2EO ethoxylate [Agent B]	87.5%	100%	best overall performance of the group	outperforms its saturated analog	outperform Roundup Powermax; also recorded: top performer	100%	97.7%	100%	outperform the control	same performance as Roundup Powermax	97.7%	96.7%	86.7%		
C11 saturated fatty amine 2EO ethoxylate [Comparative Agent D, reference compound]	82.5%	100%			outperform Roundup Powermax	97.5%	91.3%	100%	outperform the control	same performance as Roundup Powermax	91.3%	92.5%	75.0%		
unsaturated C11 fatty amine 5EO ethoxylate [Unsaturated C11 amine 5 EO ethoxylate]														20 mg/L	
saturated C11 fatty amine 5EO ethoxylate [Saturated C11 amine 5EO ethoxylate]														3.3 mg/L	moderately toxic
